Measured values as given in patent US10167262B2, “Herbicidal substituted 3-arylpyrazoles” (FMC CORPORATION, priority 2014, dated 2019).

Assays:
Assay type in all cases: in vivo
kochia (Kochia scoparia) = test: Test C postemergence greenhouse test, plant response rating 0-100
Procedure, shortened: (§1)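 Postemergence spray of formulated test chemicals on plants 2 to 18 cm tall (1- to 4-leaf stage) grown in peat/vermiculite medium. Greenhouse hold 13 to 15 days, then visual comparison with untreated controls on a 0-100 scale (0 no effect, 100 complete control); dash means no test result.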

[1] = system: chickweed (common chickweed, Stellaria media); test: as above
Procedure, shortened: as §1

wild oat (Avena fatua) = test: as above
Procedure, shortened: as §1

[2] = system: johnsongrass (Sorghum halepense); test: Test C pre-/postemergence greenhouse test, plant response rating 0-100; settings: Postemergence
Procedure, shortened: (§2)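 After treatment, pots stay in the greenhouse 13–15 days before each species is compared with untreated controls and given a 0–100 visual score. Preemergence seeds are in loam blended with sand; postemergence plants, 1–4 leaves, are in peat-based medium.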

soybean (Glycine max) = test: as above; settings: Postemergence
Procedure, shortened: as §2

[3] = system: winter wheat (Triticum aestivum); test: as above; settings: Postemergence
Procedure, shortened: as §2

[4] = system: giant foxtail (Setaria faberii); test: as above; settings: Postemergence
Procedure, shortened: as §2

corn (Zea mays) = test: as above; settings: Postemergence
Procedure, shortened: as §2

[5] = system: velvetleaf (Abutilon theophrasti); test: as above; settings: Postemergence
Procedure, shortened: as §2

[6] = system: blackgrass (Alopecurus myosuroides); test: as above; settings: Postemergence
Procedure, shortened: as §2

[7] = system: lambsquarters (Chenopodium album); test: as above; settings: Postemergence
Procedure, shortened: as §2

[8] = system: pigweed (Amaranthus retroflexus); test: as above; settings: Postemergence
Procedure, shortened: as §2

[9] = system: morningglory (Ipomoea coccinea); test: as above; settings: Postemergence
Procedure, shortened: as §2

C=CCn1cc(C(=O)c2ccccc2)c(-c2cc(Cl)cc(Cl)c2)n1 [Compound 60]
Plant response rating (0 to 100), Kochia (kochia (Kochia scoparia); 62 g ai/ha): 10 | Plant response rating (0 to 100), Kochia (kochia (Kochia scoparia); 125 g ai/ha): 20 | Plant response rating, Kochia (kochia (Kochia scoparia); 250 g ai/ha, scale 0 to 100): 55 | Plant response rating (0 to 100), Chickweed ([1]; 31 g ai/ha): 75 | Plant response rating (0 to 100), Chickweed ([1]; 125 g ai/ha): 100 | Plant response rating, Chickweed ([1]; 250 g ai/ha, scale 0 to 100): 100 | Plant response rating (0 to 100), Oat, Wild (wild oat (Avena fatua); 62 g ai/ha): 0 | Plant response rating (0 to 100), Oat, Wild (wild oat (Avena fatua); 125 g ai/ha): 0 | Plant response rating, Oat, Wild (wild oat (Avena fatua); 250 g ai/ha, scale 0 to 100): 0 | Plant response rating (0 to 100), Johnsongrass ([2]; 62 g ai/ha): 0 | Plant response rating (0 to 100), Johnsongrass ([2]; 125 g ai/ha): 5 | Plant response rating, Johnsongrass ([2]; 250 g ai/ha, scale 0 to 100): 5 | Plant response rating (0 to 100), Soybean (soybean (Glycine max); 62 g ai/ha): 5 | Plant response rating (0 to 100), Soybean (soybean (Glycine max); 125 g ai/ha): 5 | Plant response rating, Soybean (soybean (Glycine max); 250 g ai/ha, scale 0 to 100): 5 | Plant response rating (0 to 100), Wheat ([3]; 62 g ai/ha): 0 | Plant response rating (0 to 100), Wheat ([3]; 125 g ai/ha): 0 | Plant response rating, Wheat ([3]; 250 g ai/ha, scale 0 to 100): 0 | Plant response rating (0 to 100), Foxtail, Giant ([4]; 31 g ai/ha): 0 | Plant response rating (0 to 100), Foxtail, Giant ([4]; 62 g ai/ha): 5 | Plant response rating (0 to 100), Foxtail, Giant ([4]; 125 g ai/ha): 5 | Plant response rating, Foxtail, Giant ([4]; 250 g ai/ha, scale 0 to 100): 5 | Plant response rating (0 to 100), Corn (corn (Zea mays); 31 g ai/ha): 5 | Plant response rating (0 to 100), Corn (corn (Zea mays); 62 g ai/ha): 5 | Plant response rating (0 to 100), Corn (corn (Zea mays); 125 g ai/ha): 5 | Plant response rating, Corn (corn (Zea mays); 250 g ai/ha, scale 0 to 100): 5 | Plant response rating (0 to 100), Velvetleaf ([5]; 62 g ai/ha): 70 | Plant response rating (0 to 100), Velvetleaf ([5]; 125 g ai/ha): 70 | Plant response rating, Velvetleaf ([5]; 250 g ai/ha, scale 0 to 100): 80 | Plant response rating (0 to 100), Blackgrass ([6]; 31 g ai/ha): 0 | Plant response rating (0 to 100), Blackgrass ([6]; 62 g ai/ha): 0 | Plant response rating (0 to 100), Blackgrass ([6]; 125 g ai/ha): 0 | Plant response rating, Blackgrass ([6]; 250 g ai/ha, scale 0 to 100): 0 | Plant response rating (0 to 100), Lambsquarters ([7]; 62 g ai/ha): 5 | Plant response rating (0 to 100), Lambsquarters ([7]; 125 g ai/ha): 40 | Plant response rating, Lambsquarters ([7]; 250 g ai/ha, scale 0 to 100): 60 | Plant response rating (0 to 100), Pigweed ([8]; 62 g ai/ha): 60 | Plant response rating (0 to 100), Pigweed ([8]; 125 g ai/ha): 65 | Plant response rating, Pigweed ([8]; 250 g ai/ha, scale 0 to 100): 100 | Plant response rating (0 to 100), Morningglory ([9]; 62 g ai/ha): 0 | Plant response rating (0 to 100), Morningglory ([9]; 125 g ai/ha): 0 | Plant response rating, Morningglory ([9]; 250 g ai/ha, scale 0 to 100): 0

CCCn1cc(C(=O)c2ccccc2)c(-c2cc(Cl)cc(Cl)c2)n1 [Compound 61, [3-(3,5-dichlorophenyl)-1-propyl-1H-pyrazol-4-yl]phenylmethanone]
pest or weed control at 62 g/ha (kochia (Kochia scoparia); Bassia scoparia, post-emergence, 62 g ai/ha): 40% | pest or weed control at 125 g/ha (kochia (Kochia scoparia); Bassia scoparia, post-emergence, 125 g ai/ha): 45% | pest or weed control at 250 g/ha (kochia (Kochia scoparia); Bassia scoparia, post-emergence, 250 g ai/ha, scale 0 to 100): 50% | pest or weed control at 31 g/ha ([1]; Stellaria media, post-emergence, 31 g ai/ha): 20% | pest or weed control at 125 g/ha ([1]; Stellaria media, post-emergence, 125 g ai/ha): 75% | pest or weed control at 250 g/ha ([1]; Stellaria media, post-emergence, 250 g ai/ha, scale 0 to 100): 75% | pest or weed control at 62 g/ha (wild oat (Avena fatua); Avena fatua, post-emergence, 62 g ai/ha): 0% | pest or weed control at 125 g/ha (wild oat (Avena fatua); Avena fatua, post-emergence, 125 g ai/ha): 0% | pest or weed control at 250 g/ha (wild oat (Avena fatua); Avena fatua, post-emergence, 250 g ai/ha, scale 0 to 100): 0% | pest or weed control at 62 g/ha ([2]; Sorghum halepense, post-emergence, 62 g ai/ha, read-out: Plant response rating (0 to 100), Johnsongrass): 10% | pest or weed control at 125 g/ha ([2]; Sorghum halepense, post-emergence, 125 g ai/ha, read-out: Plant response rating (0 to 100), Johnsongrass): 10% | pest or weed control at 250 g/ha ([2]; Sorghum halepense, post-emergence, 250 g ai/ha, scale 0 to 100): 10% | plant injury at 62 g/ha (soybean (Glycine max); Glycine max, post-emergence, 62 g ai/ha, read-out: Plant response rating (0 to 100), Soybean): 0% | plant injury at 125 g/ha (soybean (Glycine max); Glycine max, post-emergence, 125 g ai/ha, read-out: Plant response rating (0 to 100), Soybean): 10% | plant injury at 250 g/ha (soybean (Glycine max); Glycine max, post-emergence, 250 g ai/ha, scale 0 to 100): 15% | plant injury at 62 g/ha ([3]; Triticum aestivum, post-emergence, 62 g ai/ha, read-out: Plant response rating (0 to 100), Wheat): 0% | plant injury at 125 g/ha ([3]; Triticum aestivum, post-emergence, 125 g ai/ha, read-out: Plant response rating (0 to 100), Wheat): 0% | plant injury at 250 g/ha ([3]; Triticum aestivum, post-emergence, 250 g ai/ha, scale 0 to 100): 0% | pest or weed control at 31 g/ha ([4]; Setaria faberi, post-emergence, 31 g ai/ha, read-out: Plant response rating (0 to 100), Foxtail, Giant): 5% | pest or weed control at 62 g/ha ([4]; Setaria faberi, post-emergence, 62 g ai/ha, read-out: Plant response rating (0 to 100), Foxtail, Giant): 5% | pest or weed control at 125 g/ha ([4]; Setaria faberi, post-emergence, 125 g ai/ha, read-out: Plant response rating (0 to 100), Foxtail, Giant): 5% | pest or weed control at 250 g/ha ([4]; Setaria faberi, post-emergence, 250 g ai/ha, scale 0 to 100): 10% | plant injury at 31 g/ha (corn (Zea mays); Zea mays, post-emergence, 31 g ai/ha): 5% | plant injury at 62 g/ha (corn (Zea mays); Zea mays, post-emergence, 62 g ai/ha): 5% | plant injury at 125 g/ha (corn (Zea mays); Zea mays, post-emergence, 125 g ai/ha): 5% | Corn plant response rating (crop injury, 0 = no effect, 100 = complete kill) at 250 g/ha (corn (Zea mays); Zea mays, post-emergence, 250 g ai/ha, scale 0 to 100): 5% | pest or weed control at 62 g/ha ([5]; Abutilon theophrasti, post-emergence, 62 g ai/ha, read-out: Plant response rating (0 to 100), Velvetleaf): 40% | pest or weed control at 125 g/ha ([5]; Abutilon theophrasti, post-emergence, 125 g ai/ha, read-out: Plant response rating (0 to 100), Velvetleaf): 75% | pest or weed control at 250 g/ha ([5]; Abutilon theophrasti, post-emergence, 250 g ai/ha, scale 0 to 100): 75% | pest or weed control at 31 g/ha ([6]; Alopecurus myosuroides, post-emergence, 31 g ai/ha, read-out: Plant response rating (0 to 100), Blackgrass): 0% | pest or weed control at 62 g/ha ([6]; Alopecurus myosuroides, post-emergence, 62 g ai/ha, read-out: Plant response rating (0 to 100), Blackgrass): 0% | pest or weed control at 125 g/ha ([6]; Alopecurus myosuroides, post-emergence, 125 g ai/ha, read-out: Plant response rating (0 to 100), Blackgrass): 0% | pest or weed control at 250 g/ha ([6]; Alopecurus myosuroides, post-emergence, 250 g ai/ha, scale 0 to 100): 0% | pest or weed control at 62 g/ha ([7]; Chenopodium album, post-emergence, 62 g ai/ha, read-out: Plant response rating (0 to 100), Lambsquarters): 40% | pest or weed control at 125 g/ha ([7]; Chenopodium album, post-emergence, 125 g ai/ha, read-out: Plant response rating (0 to 100), Lambsquarters): 55% | pest or weed control at 250 g/ha ([7]; Chenopodium album, post-emergence, 250 g ai/ha, scale 0 to 100): 55% | pest or weed control at 62 g/ha ([8]; Amaranthus retroflexus, post-emergence, 62 g ai/ha, read-out: Plant response rating (0 to 100), Pigweed): 100% | pest or weed control at 125 g/ha ([8]; Amaranthus retroflexus, post-emergence, 125 g ai/ha, read-out: Plant response rating (0 to 100), Pigweed): 100% | pest or weed control at 250 g/ha ([8]; Amaranthus retroflexus, post-emergence, 250 g ai/ha, scale 0 to 100): 100% | pest or weed control at 62 g/ha ([9]; Ipomoea, post-emergence, 62 g ai/ha, read-out: Plant response rating (0 to 100), Morningglory): 0% | pest or weed control at 125 g/ha ([9]; Ipomoea, post-emergence, 125 g ai/ha, read-out: Plant response rating (0 to 100), Morningglory): 0% | pest or weed control at 250 g/ha ([9]; Ipomoea, post-emergence, 250 g ai/ha, scale 0 to 100): 0%
